Experimental data: patent US20130096321A1, “CRYSTALLINE ROTIGOTINE BASE AND PREPARATION PROCESS THEREFOR” (CHEMAGIS LTD., priority 2007, published 2013)

Experiment: Thermogravimetric analysis (TGA) of rotigotine base crystalline Form I
Assay type: physicochemical
Settings: platinum baskets, heating rate 5° C./minute, FIG. 4
Procedure: Rotigotine base crystalline form I produces a TGA curve as depicted in FIG. 4. […] The TGA measurement was performed using a TA instruments Q500 Thermal analyzer with Universal Software (version 3.88). Samples were analyzed inside platinum baskets at heating rate of 5° C./minute.

CCCN(CCc1cccs1)[C@H]1CCc2c(O)cccc2C1 [crystalline rotigotine base Form I, (S)-(−)-5-hydroxy-2-(N-n-propyl-N-2-thienylethyl)-aminotetralin]
decomposition on heating (from TGA curve): does not decompose on heating
thermal stability (from TGA curve): thermally stable
